Measured values taken from patent publication US8962523B2, “Herbicide/safener combination” (Bayer Cropscience AG, priority 2008, dated 2015).

Tests used:
Assay type in all cases: in vivo
Wheat (Triso) [1] = assay: Pre-emergence herbicidal effect and safener effect, wheat; details: herbicide 100 g a.i./ha, no safener, visual scoring vs untreated controls
Description: (§1) Seeds or rhizome pieces of mono- and dicotyledonous weed plants and crop plants were planted in peat pots in sandy loam and covered with earth. The herbicide/safener active ingredient combinations according to the invention, formulated as water-soluble powders or suspensions, and, in parallel experiments, the correspondingly formulated individual active ingredients were then applied to the surface of the covering earth at an application rate of 600 to 800 l of water/ha (converted) in a variety of dosages.
(§2) After the treatment, the pots were placed in the greenhouse and kept under good growth conditions for the weeds and the crop plants. Visual scoring of the plant damage or emergence damage was carried out after the test plants had emerged after a test period of 2 to 4 weeks, in comparison with untreated controls.

Wheat (Triso) [2] = assay: Post-emergence herbicidal effect and safener effect, wheat; details: herbicide 50 g a.i./ha, no safener
Description: (§3) Seeds or rhizome pieces of mono- and dicotyledonous harmful plants and of crop plants are planted in peat pots in sandy loam, covered with earth and grown in a greenhouse under good growth conditions. Alternatively to this, harmful plants occurring in the paddy rice cultivation are cultivated in pots in which water comes to 2 cm above the soil surface. 10 to 20 days after sowing, the test plants are treated in the one to three-leaf stage. The herbicide/safener active ingredient combinations according to the invention, formulated as water-soluble powders or suspensions, and, in parallel experiments, the correspondingly formulated individual active ingredients are sprayed onto the green plant parts in various dosages using an application rate of 300 l of water/ha (converted) and, after the test plants have remained in the greenhouse under optimum growth conditions for 2-3 weeks, the effect of the preparations is scored visually in comparison with untreated controls. In the case of rice or in the case of harmful plants which occur in the rice cultivation, the active ingredients are also placed directly into the irrigation water (application analogous to the so-called granules application) or sprayed onto plants and into the irrigation water.

Barley (Adonis) = assay: Post-emergence herbicidal effect and safener effect, barley; details: no safener
Description: as §3

Corn (Aventura) [3] = assay: Pre-emergence herbicidal effect and safener effect, corn; details: no safener
Description: as §1, §2

Corn (Aventura) [4] = assay: Post-emergence herbicidal effect and safener effect, corn; details: herbicide 100 g a.i./ha, no safener
Description: as §3

## COC(=O)c1nc(-c2ccc(Cl)nc2)cc(N)c1Cl [I-128, Methyl 4-amino-3-chloro-6-(6-chloro-3-pyridinyl)pyridine-2-carboxylate]
Wheat (Triso) [1]
  % Effect (without safener): 50%
Wheat (Triso) [2]
  % Effect (without safener): 40%
Barley (Adonis); herbicide 25 g a.i./ha
  % Effect (without safener): 30%
Barley (Adonis); herbicide 50 g a.i./ha
  % Effect (without safener): 20%
Corn (Aventura) [3]; herbicide 25 g a.i./ha
  % Effect (without safener): 50%
Corn (Aventura) [3]; herbicide 50 g a.i./ha
  % Effect (without safener): 65%
Corn (Aventura) [4]
  % Effect (without safener): 40%
